Experimental data published in patent US10111854B2, “Synthesis and use of amine-containing flavonoids as potent anti-leishmanial agents” (The Hong Kong Polytechnic University, priority 2014, dated 2018).

What was measured:
[1] = system: L. donovani HU3 promastigotes; experiment: Anti-promastigote activity (MTS assay), L. donovani HU3; type: cell-based; settings: Leishmania donovani, 72 hours
Protocol: (§1) Promastigotes of visceral L. donovani Ld39 and LdHU3, and cutaneous L. amazonensis LV78, L. braziliensis UA847 and L. major FV1 were employed in the study. All strains were cultured in Schneider's Drosophila Medium (Invitrogen), pH 6.9 supplemented with 10% (v/v) heat inactivated fetal bovine serum (Hyclone) with 4 mM glutamine (Sigma) and 25 μg/mL gentamicin solution (Invitrogen) at 27° C. for 4 days. RAW264.7 cells were cultured in supplemented DMEM media with 10% heat inactivated FBS and 100 U/mL penicillin and 100 μg/mL of streptomycin. They were maintained at 37° C. in a humidified atmosphere with 5% CO2. The cells were split constantly after a confluent monolayer has been formed. The cells were harvested by a cell scraper.
(§2) Anti-promastigote activity was determined according to previous procedures (1) by Cell Titer 96® Aqueous Assay (Promega) that employed a tetrazolium compound. Promastigotes were seeded into 96-well flat bottom microtiter plate at 1×10^5 cells per well in a final volume of 100 μL medium and incubated with a series of concentrations of synthetic FM. Parasites were incubated at 27° C. for 72 hours. After 72 hours of incubation, 10 μL of MTS:PMS mixture [MTS:2-(4,5-Dimethylthiazol-2-yl-)-5-[3-(carboxymethoxy)phenyl]-2-(4-sulfophenyl)-2H-tetrazolium); PMS: phenazine methosulfate both purchased from Sigma] was added into each well of microtiter plate. The plate was then incubated at 27° C. for 4 hours for color development. After 4 hours of incubation, the OD values were determined at 490 nm using automatic microtiter plate reader (Bio-Rad).
(§3) IC50 values of known antileishmanials and the amine-containing flavonoid monomers of the present invention to promastigotes (L. amazonensis LV78, L major FV1, L. donovani HU3, L. donovani 39), macrophages (Raw 264.7 and PEM) and mouse fibroblast (L929) were determined. The anti-promastigotes activities and cytotoxicity of the amine-containing flavonoid monomers of the invention are shown in Table 1.

[2] = Cytotoxicity, L929 fibroblasts; type: cell-based, mouse; settings: mouse
Protocol: as §3

[3] = Cytotoxicity, peritoneal elicited macrophages (PEM); type: cell-based, mouse; settings: mouse, Cytotoxicity IC50, PEM
Protocol: (§4) Mouse peritoneal elicited macrophages (PEM) were obtained as previously described (2). A round cover slip (12 mm in diameter) was placed into each well of 24-well culture plate. Mouse PEM were resuspended in supplemented DMEM media containing 10% heat inactivated FBS (v/v), 100 U/mL penicillin and 100 μg/mL streptomycin and seeded into each well at a cell density of 1×10^5 cells per 500 μL. Macrophages were allowed to attach overnight. Non-adherent cells were removed by gentle washing with un-supplemented DMEM media twice. Adherent macrophages were infected with late-log promastigotes at a parasite-to-macrophage ratio of 20:1 overnight at 37° C. with 5% CO2. Non-internalized promastigotes were removed by washing twice with un-supplemented DMEM media. Infected macrophages were further incubated in 500 μL of supplemented DMEM media in the presence or absence of FM for 72 hours at 37° C. After incubation, cover slips were stained with Giemsa and the percentage of macrophages infected and number of amastigotes per 100 macrophages was enumerated.
as §3

[4] = system: L. amazonensis LV78 amastigotes; experiment: Anti-amastigote activity in infected PEM, L. amazonensis LV78; type: cell-based; settings: Leishmania amazonensis, 72 h; infected PEM, 3 days, Giemsa
Protocol: as §4
(§5) PEM cells were infected with late-log promastigotes (L. amazonensis LV78, L. braziliensis UA847, L. donovani HU3, L. donovani 39) for 24 hr at 37° C. Infected macrophages were then treated with various antileishmanials and incubated for 3 days at 37° C. After 3 days, the cover slips were stained with Giemsa. The number of amastigotes per 100 macrophages were determined and used to calculate IC50 values.

[5] = system: L. donovani HU3 amastigotes; experiment: Anti-amastigote activity in infected PEM, L. donovani HU3; type: cell-based; settings: Leishmania donovani, 72 h; infected PEM, 3 days, Giemsa; SSG-sensitive
Protocol: as §4, §5

[6] = system: L. donovani Ld39 promastigotes; experiment: Anti-promastigote activity (MTS assay), L. donovani Ld39; type: cell-based; settings: Leishmania donovani, 72 hours
Protocol: as §1, §2, §3

[7] = system: L. donovani Ld39 amastigotes (SSG-resistant); experiment: Anti-amastigote activity in infected PEM, L. donovani Ld39; type: cell-based; settings: for IC50: Leishmania donovani, 72 h, infected PEM, 3 days, Giemsa, SSG-resistant; for Selective index (a)/(c): IC50 RAW264.7 over IC50 L. donovani Ld39 amastigotes
Protocol: as §4, §5

[8] = system: L. amazonensis LV78 promastigotes; experiment: Anti-promastigote activity (MTS assay), L. amazonensis LV78; type: cell-based; settings: Leishmania amazonensis, 72 hours
Protocol: as §1, §2, §3

[9] = system: L. major FV1 promastigotes; experiment: Anti-promastigote activity (MTS assay), L. major FV1; type: cell-based; settings: Leishmania major, 72 hours
Protocol: as §1, §2, §3

[10] = system: RAW264.7 cells; experiment: Reactive oxygen species (ROS) level, DCFDA, RAW264.7; type: cell-based, murine
Protocol: (§6) 50,000 RAW264.7 were seeded in each well of black 96-well plates overnight. Next day, RAW264.7 cells were pre-loaded with 10 μM dichlorofluorescein diacetate (DCFDA) (Abcam) for 1 hr at 37° C. with 5% CO2. A control of non-DCFDA stained cells was also included. The DCFDA-contained supplemented DMEM media was removed. The cells were re-suspended with 10 μM or 30 μM of respective tested compounds and positive control, tert-butyl hydroperoxide. In Leishmania, 1×10^7 promastigotes were also pre-loaded with 10 μM DCFDA at 27° C. for 1 hr. After removing the DCFDA-contained media, the promastigotes were seeded into black 96-well plate and incubated with 30 μM of respective compounds or positive control. The ROS level was determined at different periods of time including 2, 4, 6, 8, 20, 46 and 72 hr using microplate reader (excitation: 485 nm and emission: […]).
(§7) The ROS levels in both macrophage RAW264.7 and L. amazonensis promastigotes was measured by dichlorofluorescein diacetate (DCFDA) dye which is permeable to the cells. With oxidative stress, DCFDA would be oxidized to fluorescent DCF which is an indicator of intracellular ROS level. RAW cells or L. amazonensis promastigotes were pre-loaded with 10 μM of DCFDA for 1 hr, washed and exposed to 39, FM09, pentamidine and amphotericin B for different period of time (2, 4, 6, 8, 20, 46 and 72 hr). The fluorescence level was measured at the 520 nm using 485 nm as an excitation wavelength. 0.1% DMSO or 0.3% DMSO was used as a solvent control. The fluorescent value has been subtracted from non-DCFDA stained cells. The values were presented as mean±standard error of mean.

[11] = system: L. amazonensis LV78 promastigotes; experiment: Reactive oxygen species (ROS) level, DCFDA, promastigotes; type: cell-based; settings: 30 μM
Protocol: as §6, §7

Structure (SMILES)	IC50 [1]	IC50 [4]	IC50 [5]	IC50 [8]	IC50 [9]	IC50 [2]	IC50 [3]	IC50 [6]	IC50 [7]	also measured
NC[C@@H]1O[C@H](O[C@H]2[C@@H](O)[C@H](O[C@@H]3[C@@H](O)[C@H](N)C[C@H](N)[C@H]3O[C@H]3O[C@H](CO)[C@@H](O)[C@H](O)[C@H]3N)O[C@@H]2CO)[C@H](N)[C@@H](O)[C@@H]1O [Paromomycin, reference compound]	–	–	–	–	–	–	> 100 µM	24.5 ± 2.4 µM	41 ± 1.1 µM	–
O=c1cc(-c2ccc(OCCOCCN(Cc3ncccn3)Cc3ncccn3)cc2)oc2ccccc12 [FM09d, 2-(4-(2-(2-(bis(pyrimidin-2-ylmethyl)amino)ethoxy)ethoxy)phenyl)-4H-chromen-4-one]	42.4 ± 7.65 µM	> 10 µM	> 10 µM	35.3 ± 4.2 µM	–	> 100 µM	> 100 µM	–	–	–
O=C(COc1ccc(-c2cc(=O)c3ccccc3o2)cc1)N1CCN(Cc2ccncc2)CC1 [FM12, 2-(4-(2-oxo-2-(4-(pyridin-4-ylmethyl)piperazin-1-yl)ethoxy)phenyl)-4H-chromen-4-one]	25.4 ± 3.6 µM	> 10 µM	–	> 100 µM	> 100 µM	> 100 µM	–	15 ± 2.2 µM	> 10 µM	–
CC(C)(C)OO [tert-butyl hydroperoxide]	–	–	–	–	–	–	–	–	–	RAW264.7 ROS Level, Relative fold (RF) ([10]; 10 μM, 2 hr): 2.3 fold; RAW264.7 ROS Level, Relative fold (RF) ([10]; 10 μM, 4 hr): 2.3 fold; RAW264.7 ROS Level, Relative fold (RF) ([10]; 10 μM, 6 hr): 2.2 fold; RAW264.7 ROS Level, Relative fold (RF) ([10]; 10 μM, 8 hr): 1.9 fold; RAW264.7 ROS Level, Relative fold (RF) ([10]; 10 μM, 20 hr): 1.8 fold; RAW264.7 ROS Level, Relative fold (RF) ([10]; 30 μM, 2 hr): 2.9 fold; RAW264.7 ROS Level, Relative fold (RF) ([10]; 30 μM, 4 hr): 2.9 fold; RAW264.7 ROS Level, Relative fold (RF) ([10]; 30 μM, 6 hr): 2.6 fold; RAW264.7 ROS Level, Relative fold (RF) ([10]; 30 μM, 20 hr): 1.9 fold; RAW264.7 ROS Level, Relative fold (RF) ([10]; 30 μM, 46 hr): 1.6 fold; L. amazon LV78 promastigote ROS Level, Relative fold (RF) ([11]; 2 hr): 1.4 fold; L. amazon LV78 promastigote ROS Level, Relative fold (RF) ([11]; 4 hr): 1.3 fold; L. amazon LV78 promastigote ROS Level, Relative fold (RF) ([11]; 6 hr): 1.4 fold; L. amazon LV78 promastigote ROS Level, Relative fold (RF) ([11]; 20 hr): 1.7 fold; L. amazon LV78 promastigote ROS Level, Relative fold (RF) ([11]; 46 hr): 1.5 fold; L. amazon LV78 promastigote ROS Level, Relative fold (RF) ([11]; 72 hr): 1.9 fold
O=c1cc(-c2ccc(OCCC3CCN(Cc4ccccn4)CC3)cc2)oc2ccccc12 [FM05a, 2-(4-(2-(1-(pyridin-2-ylmethyl)piperidin-4-yl)ethoxy)phenyl)-4H-chromen-4-one]	7.43 ± 2.15 µM	3.57 ± 1.73 µM	5.2 ± 1.68 µM	2.97 ± 0.91 µM	–	58.9 ± 23.3 µM	17.6 µM	–	–	–
O=c1cc(-c2ccc(OCCN3CCN(Cc4ccccn4)CC3)cc2)oc2ccccc12 [FM01a, 2-(4-(2-(4-(pyridin-2-ylmethyl)piperazin-1-yl)ethoxy)phenyl)-4H-chromen-4-one]	15.4 ± 5.98 µM	8.74 ± 0.77 µM	10 µM	11.7 ± 1.34 µM	–	60.3 ± 2.3 µM	–	–	–	–

The next lines start with results.

IC50 [1]	IC50 [4]	IC50 [5]	IC50 [8]	IC50 [9]	Structure (SMILES)	IC50 [2]	IC50 [3]	IC50 [6]	IC50 [7]	also measured
25.3 ± 3.94 µM	4.46 ± 0.68 µM	9.3 ± 0.56 µM	–	–	O=c1cc(-c2ccc(OCCOCCNCc3ccccn3)cc2)oc2ccccc12 [FM09m, 2-(4-(2-(2-((pyridin-2-ylmethyl)amino)ethoxy)ethoxy)phenyl)-4H-chromen-4-one]	23.9 ± 1.15 µM	28.4 µM	–	–	–
18.1 ± 4.88 µM	> 10 µM	> 10 µM	28.1 ± 5.24 µM	–	O=c1cc(-c2ccc(OCCOCCN(Cc3ncccc3Cl)Cc3ncccc3Cl)cc2)oc2ccccc12 [FM09g, 2-(4-(2-(2-(bis((3-chloropyridin-2-yl)methyl)amino)ethoxy)ethoxy)phenyl)-4H-chromen-4-one]	33.7 ± 10.6 µM	–	–	–	–
–	–	–	57.6 ± 37.3 µM	59.8 ± 6.9 µM	NCCOCCOc1ccc(-c2cc(=O)c3ccccc3o2)cc1 [FM20, 2-(4-(2-(2-(amino)ethoxy)ethoxy)phenyl)-4H-chromen-4-one]	41.5 ± 15.6 µM	57.5 ± 9.2 µM	34.9 ± 14.1 µM	0.7 ± 0.1 µM	Selective index (a)/(c) [7]: 22.6
> 50 µM	> 10 µM	–	> 100 µM	> 100 µM	O=C(COc1ccc(-c2cc(=O)c3ccccc3o2)cc1)N1CCN(C(=O)c2ccncc2)CC1 [FM16, 2-(4-(2-(4-isonicotinoylpiperazin-1-yl)-2-oxoethoxy)phenyl)-4H-chromen-4-one]	> 100 µM	–	87.1 ± 13 µM	5.7 µM	Selective index (a)/(c) [7]: >17.5; Selective index (a)/(c) ([7]; listed as 16): > 17.5
2.4 µM	–	–	2.8 µM	–	O=c1cc(-c2ccc(OCCOCCNC(c3ccccn3)c3ccccn3)cc2)oc2ccccc12 [FM09p, 2-(4-(2-(2-((di(pyridin-2-yl)methyl)amino)ethoxy)ethoxy)phenyl)-4H-chromen-4-one]	2.1 µM	12.5 µM	–	–	–
37.6 ± 2.8 µM	6 ± 0.2 µM	–	31.4 ± 2.4 µM	78.5 ± 11.3 µM	O=C(COc1ccc(-c2cc(=O)c3ccccc3o2)cc1)N1CCNCC1 [FM10, 2-(4-(2-oxo-2-(piperazin-1-yl)ethoxy)phenyl)-4H-chromen-4-one]	> 33 µM	–	49.5 ± 8 µM	> 10 µM	–
66.9 ± 9.7 µM	7.1 ± 1.6 µM	–	> 100 µM	> 100 µM	O=C(COc1ccc(-c2cc(=O)c3ccccc3o2)cc1)N1CCCNCC1 [FM11, 2-(4-(2-(1,4-diazepan-1-yl)-2-oxoethoxy)phenyl)-4H-chromen-4-one]	> 33 µM	–	> 100 µM	> 10 µM	–
